Calls of active or inactive are those of the source.
How the values were obtained:
Beta-galactosidase = Beta-galactosidase (Escherichia coli, UniProt Q8VNN2); test: Dose response counterscreen for EBI2 assay utilizing the enzyme, b-galactosidase.; assay type: functional
[1] = bead-based luminescence quenchers, dual-tagged ARNT – biochemical, AlphaScreen, cherry-pick, artefact control for ARNT-TACC3 interaction inhibitor project, dose response (AID 651705); assay type: functional;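 further: AlphaScreen bead proximity signal that flags compounds interfering with the detection technology; potency reflects signal decrease which marks the compound as an assay artifact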
Streptokinase A = molecular target: T1, Streptokinase A (Streptococcus pyogenes serotype M1, UniProt P10520); test: viability-normalized secreted streptokinase activity reduction – plasminogen activation absorbance, OD405, dose response (AID 1914); assay type: functional, Streptococcus pyogenes M1 GAS;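 further: secreted streptokinase activity via plasminogen activation per viability signal from cell pellet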
T1 sequence (P10520 whole entry): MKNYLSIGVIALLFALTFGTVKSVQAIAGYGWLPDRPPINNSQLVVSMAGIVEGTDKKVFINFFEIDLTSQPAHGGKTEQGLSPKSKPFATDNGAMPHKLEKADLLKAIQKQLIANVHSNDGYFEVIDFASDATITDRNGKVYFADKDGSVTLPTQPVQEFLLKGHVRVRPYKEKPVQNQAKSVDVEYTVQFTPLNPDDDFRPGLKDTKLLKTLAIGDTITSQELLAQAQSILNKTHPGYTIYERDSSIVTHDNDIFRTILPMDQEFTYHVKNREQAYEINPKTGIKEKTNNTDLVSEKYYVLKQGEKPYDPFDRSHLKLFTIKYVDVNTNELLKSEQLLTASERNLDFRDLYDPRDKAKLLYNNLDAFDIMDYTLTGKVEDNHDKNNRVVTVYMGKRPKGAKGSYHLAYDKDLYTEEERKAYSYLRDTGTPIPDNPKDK

Streptococcus = test: GAS UMAA2166 growth inhibition – luminescence, BacTiterGlo, counter-screen for streptokinase expression inhibitor project, dose response (AID 1915); assay type: functional, organism-based;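 further: potency for reduction of bacterial viability or growth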
[2] = tested on: Streptococcus sp. 'group A'; test: Streptococcus pyogenes SK(-)GAS viability under kanamycin – luminescence, BacTiterGlo, confirmation, counter-screen for streptokinase expression inhibitor project, dose response (AID 1900); assay type: functional, organism-based
[3] = molecular target: T2, Serine/threonine-protein phosphatase (Candida dubliniensis (strain CD36 / CBS 7987 / NCPF 3949 / NRRLY-17841) (Yeast), UniProt B9W6M3); test: blockers of CaCl2-induced CDRE-lacZ signaling – S. cerevisiae, luminescence, secondary, dose response (AID 2388); assay type: functional, cell-based;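 further: yeast reporter cells carrying a calcineurin-responsive lacZ construct stimulated with calcium chloride; luminescent beta-galactosidase reporter signal in whole cells rather than isolated phosphatase activity; potency for inhibition where a drop in reporter signal means calcineurin blockade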
T2 sequence (B9W6M3 whole entry): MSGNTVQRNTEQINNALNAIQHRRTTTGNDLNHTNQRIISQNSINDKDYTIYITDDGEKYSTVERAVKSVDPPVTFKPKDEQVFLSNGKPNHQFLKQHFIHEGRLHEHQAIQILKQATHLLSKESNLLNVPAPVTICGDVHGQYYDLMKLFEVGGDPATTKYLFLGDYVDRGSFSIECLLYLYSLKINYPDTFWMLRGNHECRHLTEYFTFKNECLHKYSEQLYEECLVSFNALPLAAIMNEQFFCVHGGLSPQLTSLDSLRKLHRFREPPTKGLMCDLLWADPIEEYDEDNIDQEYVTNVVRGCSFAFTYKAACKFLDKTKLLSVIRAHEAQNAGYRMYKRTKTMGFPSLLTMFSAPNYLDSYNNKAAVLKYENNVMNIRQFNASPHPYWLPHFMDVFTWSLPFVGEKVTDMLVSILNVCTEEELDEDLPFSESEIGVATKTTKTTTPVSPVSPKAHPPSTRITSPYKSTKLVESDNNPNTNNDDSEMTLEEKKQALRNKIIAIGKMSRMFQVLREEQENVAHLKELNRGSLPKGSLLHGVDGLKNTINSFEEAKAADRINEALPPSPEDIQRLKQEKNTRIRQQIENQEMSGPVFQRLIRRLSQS

[4] = molecular target: Heat shock protein HSP 90-alpha (Homo sapiens, UniProt P07900); assay type: functional, organism-based
[5] = molecular target: ATP-dependent molecular chaperone HSP82 (Candida albicans (strain WO-1) (Yeast), UniProt C4YTQ8); test: steroid-induced GRE reporter decrease in yeast – S. cerevisiae, luminescence, Hsp90 inhibitor project, dose response (AID 2400); assay type: functional, cell-based;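 further: beta-galactosidase luminescence from glucocorticoid response element reporter as proxy for Hsp90 function; inhibitor potency where signal loss means Hsp90 inhibition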
Sequence of ATP-dependent molecular chaperone HSP82 (C4YTQ8 whole entry): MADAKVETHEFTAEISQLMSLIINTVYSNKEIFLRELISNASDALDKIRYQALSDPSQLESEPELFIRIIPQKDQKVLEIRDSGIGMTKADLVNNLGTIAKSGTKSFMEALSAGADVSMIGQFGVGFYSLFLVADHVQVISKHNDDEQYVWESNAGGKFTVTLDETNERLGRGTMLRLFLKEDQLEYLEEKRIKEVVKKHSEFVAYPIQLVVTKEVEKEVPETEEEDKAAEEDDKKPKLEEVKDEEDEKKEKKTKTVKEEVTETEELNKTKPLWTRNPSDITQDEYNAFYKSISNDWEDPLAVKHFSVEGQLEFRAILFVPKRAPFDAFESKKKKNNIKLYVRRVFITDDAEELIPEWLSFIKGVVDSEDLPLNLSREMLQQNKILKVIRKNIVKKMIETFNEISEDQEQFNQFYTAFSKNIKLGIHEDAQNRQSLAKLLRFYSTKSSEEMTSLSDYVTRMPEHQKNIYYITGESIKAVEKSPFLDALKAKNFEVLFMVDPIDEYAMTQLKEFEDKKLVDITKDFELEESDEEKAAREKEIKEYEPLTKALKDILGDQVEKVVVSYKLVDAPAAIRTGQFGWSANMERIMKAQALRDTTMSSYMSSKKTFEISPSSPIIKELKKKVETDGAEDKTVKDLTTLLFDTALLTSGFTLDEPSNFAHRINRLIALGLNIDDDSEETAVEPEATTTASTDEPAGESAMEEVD

[6] = molecular target: T3, Apoptotic protease-activating factor 1 (Homo sapiens, UniProt O14727); test: SAR analysis of small molecule Activators of Apaf-1 in a Fluorescent assay.; assay type: functional; conditions: read-out: EC50_Mean;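 further: caspase-3 cleavage of fluorogenic Rh110 DEVD substrate downstream of apoptosome activation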
T3 sequence (O14727 whole entry): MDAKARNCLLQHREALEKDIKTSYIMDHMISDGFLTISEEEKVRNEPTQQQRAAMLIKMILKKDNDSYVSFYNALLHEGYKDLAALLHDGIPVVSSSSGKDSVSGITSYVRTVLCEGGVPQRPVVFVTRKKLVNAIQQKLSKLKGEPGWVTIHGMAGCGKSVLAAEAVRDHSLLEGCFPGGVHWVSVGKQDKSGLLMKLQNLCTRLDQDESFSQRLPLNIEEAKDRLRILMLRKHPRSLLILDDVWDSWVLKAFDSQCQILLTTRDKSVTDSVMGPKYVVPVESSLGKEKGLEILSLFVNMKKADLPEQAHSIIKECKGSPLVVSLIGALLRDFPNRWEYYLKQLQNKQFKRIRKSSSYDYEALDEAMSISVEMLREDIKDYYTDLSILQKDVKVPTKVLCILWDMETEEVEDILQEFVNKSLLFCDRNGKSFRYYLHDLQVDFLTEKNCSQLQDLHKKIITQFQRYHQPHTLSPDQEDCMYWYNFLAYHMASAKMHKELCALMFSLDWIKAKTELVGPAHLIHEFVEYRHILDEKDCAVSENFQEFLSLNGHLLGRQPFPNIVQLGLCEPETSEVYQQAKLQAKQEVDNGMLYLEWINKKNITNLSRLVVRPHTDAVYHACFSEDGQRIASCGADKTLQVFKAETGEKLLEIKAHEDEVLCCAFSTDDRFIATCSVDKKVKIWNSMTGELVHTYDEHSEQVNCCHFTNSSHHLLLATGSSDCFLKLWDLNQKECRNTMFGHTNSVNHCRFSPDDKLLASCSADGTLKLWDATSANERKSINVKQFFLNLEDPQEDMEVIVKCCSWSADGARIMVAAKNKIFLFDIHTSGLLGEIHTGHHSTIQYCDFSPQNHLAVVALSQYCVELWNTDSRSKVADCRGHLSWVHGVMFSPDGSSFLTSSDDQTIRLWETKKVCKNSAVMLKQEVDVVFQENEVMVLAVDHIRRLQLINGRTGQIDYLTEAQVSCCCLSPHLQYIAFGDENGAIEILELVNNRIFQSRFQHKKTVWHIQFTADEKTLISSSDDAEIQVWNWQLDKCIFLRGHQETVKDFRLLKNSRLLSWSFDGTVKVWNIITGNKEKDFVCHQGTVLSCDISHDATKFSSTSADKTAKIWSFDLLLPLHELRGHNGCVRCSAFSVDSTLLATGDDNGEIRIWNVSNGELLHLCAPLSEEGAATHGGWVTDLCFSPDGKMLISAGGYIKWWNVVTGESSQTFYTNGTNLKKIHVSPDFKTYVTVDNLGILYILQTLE

Melanocortin receptor 4 = Melanocortin receptor 4 (Homo sapiens, UniProt P32245); assay type: functional, cell-based;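 further: Cell-based assay with luminescence read-out, confirmatory dose-response testing for agonist activity of biased ligands at MC4R; human U2OS cells with tagged receptor and beta-arrestin; potency of agonists that increase receptor coupling to beta-arrestin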
Sequence of Melanocortin receptor 4 (P32245 whole entry): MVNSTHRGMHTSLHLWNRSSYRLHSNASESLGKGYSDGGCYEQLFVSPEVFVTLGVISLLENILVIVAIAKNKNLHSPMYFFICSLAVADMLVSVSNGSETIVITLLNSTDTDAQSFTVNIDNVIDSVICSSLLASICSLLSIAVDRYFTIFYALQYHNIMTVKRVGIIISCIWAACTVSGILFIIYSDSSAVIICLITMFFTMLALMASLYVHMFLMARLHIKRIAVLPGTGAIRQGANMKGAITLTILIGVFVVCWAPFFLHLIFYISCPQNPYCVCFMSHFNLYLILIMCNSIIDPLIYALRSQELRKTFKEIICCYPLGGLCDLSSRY

[7] = general mammalian cell viability loss – activator set, cherry-pick, cytotoxicity control for miR-122 modulator project, dose response (AID 720690); assay type: functional, cell-based;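 further: HEK293T human cells scored for general mammalian cytotoxicity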
[8] = activation of miR-122 Renilla sensor silencing – cell-based, Huh7 psiCHECK-miR122, Renilla luciferase, cherry-picked, dose response (AID 651956); assay type: functional;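 further: huh7 hepatoma cells stably carrying a psiCHECK-2 miR-122 sensor plasmid; renilla luciferase signal reporting endogenous miR-122 activity after 48 h compound exposure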
[9] = general mammalian cell viability loss – inhibitor set, cherry-pick, set 2, cytotoxicity control for miR-122 modulator project, dose response (AID 720697); assay type: functional, cell-based

Sequence of Beta-galactosidase (Q8VNN2 whole entry): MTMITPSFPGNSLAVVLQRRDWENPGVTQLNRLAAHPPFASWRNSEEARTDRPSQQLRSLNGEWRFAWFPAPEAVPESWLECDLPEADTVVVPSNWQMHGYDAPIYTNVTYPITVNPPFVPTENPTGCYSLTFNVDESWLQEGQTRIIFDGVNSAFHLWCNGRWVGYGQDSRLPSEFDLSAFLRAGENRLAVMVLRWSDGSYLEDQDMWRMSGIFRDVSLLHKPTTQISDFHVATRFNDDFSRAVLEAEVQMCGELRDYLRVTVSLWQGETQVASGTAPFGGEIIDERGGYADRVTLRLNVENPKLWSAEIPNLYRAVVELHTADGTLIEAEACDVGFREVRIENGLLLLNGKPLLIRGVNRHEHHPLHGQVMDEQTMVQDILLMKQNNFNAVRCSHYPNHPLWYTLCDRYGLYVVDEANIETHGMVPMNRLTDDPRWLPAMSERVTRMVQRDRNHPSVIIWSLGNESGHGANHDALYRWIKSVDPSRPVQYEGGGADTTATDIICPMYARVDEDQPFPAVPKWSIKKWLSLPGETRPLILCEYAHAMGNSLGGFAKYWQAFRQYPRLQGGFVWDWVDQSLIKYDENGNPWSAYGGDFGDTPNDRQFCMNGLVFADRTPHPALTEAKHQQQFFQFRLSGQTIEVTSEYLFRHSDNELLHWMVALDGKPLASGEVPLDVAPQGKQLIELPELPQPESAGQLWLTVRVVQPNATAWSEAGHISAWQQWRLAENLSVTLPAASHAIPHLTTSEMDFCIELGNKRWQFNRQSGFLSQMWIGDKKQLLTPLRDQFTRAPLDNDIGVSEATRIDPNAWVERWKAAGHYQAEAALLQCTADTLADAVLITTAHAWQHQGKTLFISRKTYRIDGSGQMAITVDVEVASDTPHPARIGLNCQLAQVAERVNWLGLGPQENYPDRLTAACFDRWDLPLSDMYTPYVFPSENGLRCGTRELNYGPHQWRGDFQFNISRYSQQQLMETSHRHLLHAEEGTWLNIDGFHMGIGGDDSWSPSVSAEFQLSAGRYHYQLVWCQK

## CCN(CC(=O)NCc1cccs1)C(=O)/C=C/c1ccc(C)cc1
Beta-galactosidase
  IC50: > 80 µM (inactive)

## Cc1ccc(-c2cnc(N)n2C)cc1C
[1]
  AC50: 71.8 µM (active)
Streptokinase A
  EC50: 89.4 µM (active)
Streptococcus
  EC50: > 150 µM (not active)
[2]
  EC50: 3.86 µM (active)

## Cc1nnc(NC(=O)c2ccc(S(=O)(=O)N3CCCCC3C)cc2)o1 (configuration not stated)
[1]
  AC50: 92.5 µM (active)

## O=c1[nH]c(-c2ccccn2)nc(C(F)(F)F)c1Br
[3]
  EC50: > 180 µM (inactive)
[4]
  AC50: 4.03 µM (active)
[5]
  EC50: 10.7 µM (active)

## CCOc1ccccc1NC(=O)CCS(=O)(=O)c1cc2c(cc1Br)CCN2C(=O)C1CC1
[6]
  EC50: > 100 µM (inactive)

## O=CNc1cc(-c2ccsc2)cn2c(-c3ccccc3)cnc12
Melanocortin receptor 4
  EC50: > 89.2 µM (inactive)

## O=C(COC(=O)c1ccco1)Nc1nnc(-c2ccccc2)o1
[1]
  AC50: 133 µM (active)

## Cc1ccc(NC(=O)N2CCC(O)(c3ccc(Cl)cc3)CC2)cc1
Beta-galactosidase
  IC50: > 80 µM (inactive)

## Cc1ccc(C(=O)N2CCN(c3ccc(NC(=O)COc4ccccc4C)cc3)CC2)cc1
[7]
  AC50: 30.9 µM (active)
[8]
  AC50: 18.7 µM (active)
[9]
  AC50: 15.2 µM (active)

## CN(C)c1ccccc1-c1cc(NC=O)c2ncc(-c3cccc(C(F)(F)F)c3)n2c1
Melanocortin receptor 4
  EC50: > 89.2 µM (inactive)
